This is an account of results in US12318358B2, “Probenecid for use in treating epileptic diseases, disorders or conditions” (PARIS SCIENCES ET LETTRES—QUARTIER LATIN, priority 2017, dated 2025).

Assay [1] relates to human epileptic cortical slices. Nature of the assay: Multi-electrode array (MEA) recordings of ictal-like discharges in human epileptic cortical slices in pro-epileptic conditions. It is filed as cell-based. Here is the method: The resected cortical block was prepared according to Dossi et al. (J Vis Exp. 2014 Oct. 26; (92):e51870). Briefly, post-surgical tissue was transported in a cold solution containing (in mM) 250 D-sucrose, 25 NaHCO3, 3 KCl, 1 CaCl2, 10 MgCl2 and 10 D-glucose, and oxygenated with carbogen (95% O2 and 5% CO2). Meninges, blood clots and vessels were gently removed and transverse cortical slices (400 μm-thick) were cut with a vibratome (HM650V, Microm Microtech, France). They were maintained at 37° C., equilibrated with 95% 02 and 5% CO2, in an interface chamber, continuously perfused with an artificial cerebro-spinal fluid (ACSF) containing (in mM) 124 NaCl, 3 KCl, 26 NaHCO3, 1.6 CaCl2, 1.3 MgCl2 and 10 D-glucose at 2 ml/min, for at least 1 hour before recording.
Cortical slices were transferred on planar MEA petri dishes (200-30 ITO electrodes, organized in a 12×12 matrix, with internal reference, 30 μm diameter and 200 μm inter-electrode distance; Multichannel Systems, Germany). They were kept in place using a platinum anchor and continuously perfused at a rate of 5-6 ml/min with ACSF.
Pictures of cortical slices on MEAs were acquired with a video microscope table (MEA-VMT1; Multichannel Systems, Germany) through MEA_Monitor software (Multichannel Systems, Germany) to identify the location of the electrodes relatively to the pial surface of the slices. Data were sampled at 10 kHz and the slice activity was recorded at 37° C. by a MEA2100-120 system (bandwidth 1-3000 Hz, gain 5×; Multichannel Systems, Germany) through MC_Rack 4.5.1 software (Multichannel systems, Germany) The activity of the slices was recorded in ACSF containing (in mM) 124 NaCl, 3 KCl, 26 NaHCO3, 1.6 CaCl2, 1.3 MgCl2 and 10 D-glucose (Ct ACSF) and in high potassium, magnesium-free pro-epileptic ACSF containing (in mM) 6 KCl, 0 Mg^2+ (6K 0Mg-ACSF).
To investigate whether probenecid medication could be used as a treatment for epileptic seizures, the electrophysiological activity of human epileptic cortical slices was recorded in pro-epileptic conditions, before and after probenecid administration (1 mM, 30 minutes).

Assay [2] has as its system kainate (KA) mouse model of chronic temporal lobe epilepsy. Briefly: Telemetric EEG recording of spontaneous seizures in kainate (KA) mouse model of chronic temporal lobe epilepsy. To be noted: for Seizure duration / Seizure frequency: 200 mg/kg i.p. single injection, n = 5. It is filed as in vivo, C57BL/6j male mice. The method, then:
Six weeks old C57BL/6j male mice were injected unilaterally with kainate (KA; 0.05 μl, 20 mM in saline) at a rate of 0.5 μl/min in the CA1 area of the right hippocampus (−2 mm anteroposterior, +1.5 mm lateral, −1.4 mm dorso-ventral) by mean of a stereotaxic apparatus and a cannula (0.29 mm diameter) connected to a precision pump. Mice were then left 3 weeks for settling of the chronic epileptic phenotype.
EEG experiments were carried out using wireless ETA-F 10 transmitters (DataSciences International, USA) for chronic EEG recording and video monitoring 3 weeks after KA injection. After anesthesia (ketamine, 95 mg/kg; xylazine, 10 mg/kg; i.p.), a 1 cm midline sagittal incision was made starting above the skull midline and extending along the neck to create a pocket for subcutaneous placement of the transmitter along the dorsal flank of the animal. The recording flexible electrodes (stereotaxic coordinates: −2 mm anteroposterior, +1.5 mm and −1.5 mm lateral) were implanted subdurally through small holes drilled in the skull and held in place with dental cement. Mice were implanted with wireless ETA-F10 transmitters 2 weeks after the KA injection and were allowed to recover for 7 days before recording.
EEG signal was collected through DSI radiofrequency receivers placed under each cage. EEG data were acquired at a sampling rate of 200 Hz using the DSI Dataquest A.R.T. system (version 4.33). To assess therapeutic potential of probenecid, KA mice were recorded with ETA-F10 DSI EEG electrodes for 48 h in their home cage, injected with probenecid (200 mg/kg in corn oil, Sigma-Aldrich; i.p.) and recorded for 24 hours post-treatment. Analysis of seizures was performed using the NeuroScore software (Data Sciences International, USA); seizures were detected on the EEG as spike trains with a minimal amplitude of 1.5× baseline and a minimal duration of 5 s at a frequency ≥1 Hz (Bergstrom et al., Sci Rep. 2013; 3:1483. doi: 10.1038/srep01483). Artifacts were automatically detected using a high detection threshold and removed manually.
To further assess the therapeutic potential of probenecid, we tested the in vivo effect of probenecid i.p. in a kainate (KA) mouse model of chronic temporal lobe epilepsy. To do so, electroencephalogram (EEG) of KA mice were recorded before (48 hours) and after (24 hours) probenecid administration (200 mg/kg) (FIG. 1C).

The mark [3] stands for this setting: probenecid 1 mM, 30 minutes, pro-epileptic ACSF (6K 0Mg), n = 6 slices.
Where [4] appears, read: 20-24 hours post-treatment, single injection 200 mg/kg i.p.

Regarding `CCCN(CCC)S(=O)(=O)c1ccc(C(=O)O)cc1` [Probenecid, 4-(dipropylsulfamoyl)benzoic acid], the “Effect on IDs (FIG. 1A example recording)” value in assay [1] (PBN 1 mM, 30 min, PIDs do not disappear) is “disappear”. Further, the “human cortical slices in which ictal-like discharges (IDs) were fully inhibited” value in assay [1] (probenecid 1 mM, 30 minutes) is listed as 5 out of 6. Further, in assay [1] (setting [3]), the ID duration stood at 7.59 ± 7.59 s and the ID frequency is on record as 0.03 ± 0.03 IDs/min. Moreover, the “ID duration in the remaining slice” value in assay [1] (probenecid 1 mM, 30 minutes, the one slice not fully inhibited) was “halved”. Also, in assay [2] (4-8 h post-treatment), the Seizure duration result is “no seizure detected” and the Seizure frequency result is “no seizure detected”. The “Effect on spontaneous seizures” value in assay [2] (4 to 8 hours post-treatment, single injection 200 mg/kg i.p., in all mice tested) is given as “completely blocked”. Besides, in assay [2] (setting [4]), the “Duration of reappeared seizures versus pre-treatment” value was “significantly shorter duration” and the “Mice in which seizures reappeared” value is given as 2 of 5. In assay [2] (20-24 h post-treatment), this compound had a Seizure duration of 3.6 ± 2.25 s and a Seizure frequency of 1.2 ± 0.97 seizure/4 h.
